Results published in US20030134329A1, “Cross-species bioactive peptides” (priority 2001, published 2003).

How the values were obtained:
FLO11 = assay: PFLO11-lacZ reporter, β-galactosidase activity; assay type: cell-based, S. cerevisiae; settings: for FL011-lacZ (relative expression): Table 1, strain MY1405 with plasmid MB1339, control pTCN23 = 1.0; for FLO11-lacZ (relative expression): Table 2, strain MY1405 with MB1339, control pTCN23 = 1.0
Source text: Transformation of S. cerevisiae was by lithium acetate/single-stranded carrier DNA/polyethylene glycol (LiAc/ss-DNA/PEG) protocol (see, e.g., Gietz and Woods (1998), in: Methods in Microbiology, Chapter 26, Brown and Tuite, eds., Academic Press, New York; Agatep et al. (1998), TTO 1:P01525, Technical Tips Online at http://tto.trends.com) with a library of plasmids expressing unique random peptide sequences in the context of a Staphylococcal nuclease “scaffold” to generate more than 20 million independent Ura^+ transformants (Norman et al. (1999), Science 285:591-595). The transformants were replica-plated to YPD plates supplemented with […] G418 to select for clones with increased expression of the invasion-related reporter (FLO11) and consequent G418 resistance. Plates were incubated at 30° C. for 2-4 days and resistant clones were collected in pools (50 pools total) by scraping the colonies off each plate in a small volume of water. Plasmids were isolated as a pool (Hoffman and Winston (1986), Gene 57:267), transformed into E. coli, and re-transformed as a pool into the original selection strain, MY1560. Ura^+ transformants were again replica plated to YPD+100 μg/ml G418 plates. […] Positive clones were further tested for plasmid dependence by (1) examining the correlation between spontaneous loss of the peptide-expressing plasmid and loss of G418 resistance, and (2) recovering the plasmid from the yeast, retransforming into the original selection strain, and characterizing the G418 resistance. […] The remaining candidate peptides were characterized for their effects on expression of PFLO11-lacZ reporter constructs. This was performed by co-transforming the candidate plasmid into S. cerevisiae strain MY1405 (MATα ura3Δ0 his3Δ0::hisG trp1Δ0::hisG) which contains plasmid MB1339 [PFLO11-lacZ TRP1 […]] and measuring β-galactosidase activity.

SMP1 = settings: Table 2, strain MY1405 with MB1338, control pTCN23 = 1.0
Source text: S. cerevisiae strain MY1561 (MATα/MATαΔ::LEU2 ura3Δ::PSMP1-neo/ura3Δ0 leu2Δ0/leu2Δ0 trp1Δ0::hisG/trp1Δ0::hisG/his3Δ0::hisG/his3Δ0::hisG) was transformed with the peptide library as described above to generate 10 million independent Ura^+ clones. The transformed clones were mated to lawns of S. cerevisiae strain MY1406 [MB1337] and subsequently replica-plated to SC-Ura-Trp plates to select for triploids carrying the library clones in addition to the PSMP1-neo reporter. […] The MY1561/MY1406 [MB1337] triploids were replica-plated to YPD plates containing 100, 150, and 200 μg/ml G418, and resistant colonies were picked and retested, and their phenotypes were checked for library plasmid dependence using 5-FOA. Promising candidates were lysed and their plasmids recovered in E. coli, amplified, and reintroduced into MY1561 along with MB 1337(MY1561 is an S. cerevisiae strain and MB 1337 is a plasmid). […] In addition, S. cerevisiae strain MY1405 was transformed with the peptide clones along with MB1338 [PSMP1-lacZ TRP1 2 micron] and MB1339 [PFLO11-lacZ TRP1 2 micron], and the enzyme assays were monitored. […] Peptide inhibitors of invasion were further characterized for their effects on calcofluor resistance, a phenotype associated with mutations in the rim101/pH response pathway.

[1] = tested on: hyphal transition in C. albicans; assay: serum induction assay of hyphal transition; assay type: cell-based; settings: C. albicans transformants, serum inducing media, 37° C., relative to parent staph nuclease scaffold
PHWP1-lacZ reporter = PHWP1-lacZ reporter visual screen on X-Gal plates; assay type: cell-based, C. albicans
[2] = tested on: FLO11 promoter (PFLO11) fused to the neo gene; assay: PFLO11-neo reporter selection: G418 resistance on YPD; assay type: cell-based, S. cerevisiae; settings: strain MY1560, YPD + 100 μg/ml G418
Source text: To identify peptides that promote invasion we used S. cerevisiae strain MY1560 (MATα/MATαΔ::LEU2 ura3Δ::PFLO11-neo/ura3Δ0 leu2Δ0/leu2Δ0 trp1Δ0::hisG/trp1Δ10::hisG his3Δ0::hisG/his3Δ0::hisG). This strain contains the FLO11 promoter (PFLO11) fused to the neo gene conferring resistance to the drug G418. FLO11 is a cell-surface flocculin required for pseudohyphal and invasive growth in S. cerevisiae. […] Thus, altered FLO11 expression can be used as an indicator of an altered invasion phenotype.
It was empirically determined that the wild type MY1560 strain (untransformed or transformed with a plasmid representing the peptide library staph nuclease scaffold) is unable to grow on YPD media supplemented with 100 μg/ml G418. In contrast, hyperinvasive strains are resistant to this concentration of the drug and form colonies on G418-supplemented YPD media. Thus, transformation of this strain with an invasion-promoting peptide should render the cells capable of growing on G418-supplemented YPD media. […]

Row | Substance | FL011-lacZ (relative expression) (FLO11) | further results
1 | CGLGGCCCEIFWSFSN [5-30, 3, invasion-promoting random peptide expressed in loop of Staphylococcal nuclease scaffold] | 7.3 | –
2 | LGYGEAEREMVTCREH [Clone D4a] | – | SMP1-lacZ (relative expression) (SMP1): 9.1; FLO11-lacZ (relative expression) (FLO11): 0.1
3 | LDLDRVSVNRCSFMGF [Clone 5-20-1a, invasion-promoting random peptide expressed in loop of Staphylococcal nuclease scaffold] | 2.8 | –
4 | LTGYAKLLVQLSYFAM [Clone B2c-2] | – | SMP1-lacZ (relative expression) (SMP1): 6.4; FLO11-lacZ (relative expression) (FLO11): 0.7
5 | QRIPLIGGVLFIAWIM [Clone 5-11-3a, invasion-promoting random peptide expressed in loop of Staphylococcal nuclease scaffold] | 3.0 | –
6 | PYGPFLLLTPF*A*L [5-32, 1, invasion-promoting random peptide in Staphylococcal nuclease scaffold; * denotes a stop codon; C. albicans expression plasmid MB2756] | 15.1 | morphological switch between yeast and filamentous growth (hyphal transition) [1]: effective in inducing the morphological switch between yeast and filamentous growth; β-galactosidase expression (PHWP1-lacZ reporter) (PHWP1-lacZ reporter): higher level of β-galactosidase expression
7 | GSNGCVSVSSSVTSFM [5-49, 3, invasion-promoting random peptide expressed in loop of Staphylococcal nuclease scaffold] | 2.5 | PFLO11-neo Mediated G418^R [2]: +w
8 | ALARWLEIELHPQGLI [5-16, 3, invasion-promoting random peptide expressed in loop of Staphylococcal nuclease scaffold] | 13.3 | –
9 | AFSRRGRRAWSWPVSN [5-48, 2, invasion-promoting random peptide expressed in loop of Staphylococcal nuclease scaffold] | 12.9 | –
10 | EWCEICHRLVWVFCFT [5-34, 3, invasion-promoting random peptide expressed in loop of Staphylococcal nuclease scaffold] | 4.1 | –
11 | LGYMRASREMDGWKLL [Clone D2a] | – | SMP1-lacZ (relative expression) (SMP1): 15.4; FLO11-lacZ (relative expression) (FLO11): 0.3
12 | LPVSYVGQSTSQGPVW [Clone G4a-6] | – | SMP1-lacZ (relative expression) (SMP1): 7.8; FLO11-lacZ (relative expression) (FLO11): 0.4
13 | GAGCAPRGCVVWSSLL [4-3, 1, invasion-promoting random peptide expressed in loop of Staphylococcal nuclease scaffold] | 2.5 | –
14 | RRWNRLKSWWPCFREQ [Clone 5-18-3b, invasion-promoting random peptide expressed in loop of Staphylococcal nuclease scaffold] | 2.6 | –
15 | LYRAFTWPVAKSLRME [5-37, 1, invasion-promoting random peptide expressed in loop of Staphylococcal nuclease scaffold] | 6.1 | –
16 | HGDGLMRYFWSVAMWT [Clone 5-12-1a, invasion-promoting random peptide expressed in loop of Staphylococcal nuclease scaffold] | 2.7 | –
17 | YEAGVILRACLWAVSG [4-17, 1, invasion-promoting random peptide expressed in loop of Staphylococcal nuclease scaffold] | 10.5 | –

Row | Substance | FL011-lacZ (relative expression) (FLO11) | further results
18 | RCPVAHTLCWEVAGCT [Clone 5-43-3b, invasion-promoting random peptide expressed in loop of Staphylococcal nuclease scaffold] | 9.6 | –
19 | GYLRKHRALALGLNLH [4-9, 3, invasion-promoting random peptide expressed in loop of Staphylococcal nuclease scaffold] | 11.5 | –
20 | KRGRRRSHSCPSLMTD [4-1, 1, invasion-promoting random peptide expressed in loop of Staphylococcal nuclease scaffold] | 2.2 | –
21 | MGCVKRLLWGCCMKLT [Clone 5-64-1, invasion-promoting random peptide expressed in loop of Staphylococcal nuclease scaffold] | 2.0 | –
22 | LSYMEGPYWHRSFRAV [Clone G2a] | – | SMP1-lacZ (relative expression) (SMP1): 7.5; FLO11-lacZ (relative expression) (FLO11): 0.5
23 | LPYEVSRVCWPRRLGY [Clone D2e] | – | SMP1-lacZ (relative expression) (SMP1): 14.3; FLO11-lacZ (relative expression) (FLO11): 0.1
24 | SGDAVMGFLLKCLGLQ [5-31, 2, invasion-promoting random peptide expressed in loop of Staphylococcal nuclease scaffold] | 12.6 | –
25 | ELAYKFGRDWARLYFS [Clone 5-75-1, invasion-promoting random peptide expressed in loop of Staphylococcal nuclease scaffold] | 15.0 | –
26 | GHLWEWSGERWLLRWC [5-23, 1a, invasion-promoting random peptide expressed in loop of Staphylococcal nuclease scaffold] | 12.2 | –
27 | GRRSRVRWSWPLFKSL [5-28, 3, invasion-promoting random peptide expressed in loop of Staphylococcal nuclease scaffold] | 18.2 | –
28 | RRWEVLRGDRTARLLS [5-25, 2, invasion-promoting random peptide expressed in loop of Staphylococcal nuclease scaffold] | 13.7 | –
29 | REINWLRFFRLHKVID [5-45, 2, invasion-promoting random peptide expressed in loop of Staphylococcal nuclease scaffold] | 6.2 | –
30 | KRKVCLLGGRFLVEWL [4-16, 2, invasion-promoting random peptide expressed in loop of Staphylococcal nuclease scaffold] | 14.8 | –
31 | QPWYRKLRLAPVYPSD [Clone 5-39-1a, invasion-promoting random peptide expressed in loop of Staphylococcal nuclease scaffold] | 17.8 | –
32 | LAYGPERYPRACMRWD [Clone B2a] | – | SMP1-lacZ (relative expression) (SMP1): 8.9; FLO11-lacZ (relative expression) (FLO11): 0.2
33 | WWRPHERFIWAQYYLA [5-14, 3, invasion-promoting random peptide expressed in loop of Staphylococcal nuclease scaffold] | 4.9 | –
